# According to patent US20110071197A1, “BIS-ARYL COMPOUNDS FOR USE AS MEDICAMENTS” (priority 2008, published 2011):
# Biological target: T1, Recombinant human LTC4 synthase (Homo sapiens, UniProt Q16873)
# T1 construct: made in house; host or cells: Pichia pastoris
# T1 sequence (Q16873 1-150): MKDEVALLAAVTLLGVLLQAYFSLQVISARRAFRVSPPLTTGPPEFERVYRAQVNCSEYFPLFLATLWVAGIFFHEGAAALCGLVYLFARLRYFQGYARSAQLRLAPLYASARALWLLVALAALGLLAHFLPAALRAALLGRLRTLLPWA
# Assay: LTC4 synthase in vitro assay (HTRF detection of LTC4)
# Assay type: biochemical
# Conditions: total concentration of title compound in the assay 10 μM; HTRF method
# How it was run: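 Pichia-expressed recombinant human LTC4 synthase at 0.5 μg/ml total protein in PBS pH 7.4 with 5 mM GSH, preincubated 10 min at RT with inhibitor (10 μM final). LTA4 (2.5 μM final) was then added for 5 min at RT. LTC4 formed was read by HTRF.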
SMILES,% inh.,inhibition at 10 µM
"O=C(Nc1ccc([S+]([O-])c2ccc(NC(=O)c3ccc(C(F)(F)F)cc3)c(C(=O)O)c2)cc1C(=O)O)c1ccc(C(F)(F)F)cc1 [15:3, 2-(4-(trifluoromethyl)benz-amido)-5-((4-(4-(trifluoromethyl)benzamido)-3-carboxy-phenyl)sulfinyl)benzoic acid]",99%,–
"O=C(Nc1ccc(S(=O)(=O)c2ccc(NC(=O)c3cccc(Cl)c3)c(C(=O)O)c2)cc1C(=O)O)c1cccc(Cl)c1 [16:1, 2-(3-chlorobenzamido)-5-(4-(3-chlorobenzamido)-3-carboxyphenylsulfonyl)-benzoic acid]",–,98%
"O=C(Nc1ccc(S(=O)(=O)c2ccc(NC(=O)c3ccc(C(F)(F)F)cc3)c(C(=O)O)c2)cc1C(=O)O)c1ccc(C(F)(F)F)cc1 [16:2, 2-(4-(trifluoromethyl)benz-amido)-5-((4-(4-(trifluoro-methyl)benzamido)-3-carboxyphenyl)sulfonyl)-benzoic acid]",97%,–
"O=C(O)Cc1cc(Oc2ccc(NC(=O)c3ccc(C(F)(F)F)cc3F)cc2)ccc1NC(=O)c1cccc(Cl)c1 [17:1, {2-(3-chloro-benzoylamino)-5-[4-(2-fluoro-4-trifluoromethyl-benzoylamino)-phenoxy]-phenyl}-acetic acid]",–,96%
"O=C(O)Cc1cc(Oc2ccc(NC(=O)c3ccccc3)cc2)ccc1NC(=O)c1cccc(Cl)c1Cl [17:2, [5-(4-benzoylamino-phenoxy)-2-(2,3-dichloro-benzoylamino)-phenyl]-acetic acid]",–,99%
"CC(C)Oc1ccc(C(=O)Nc2ccc(Oc3ccc(NC(=O)c4ccccc4)cc3)cc2CC(=O)O)cc1 [17:3, [5-(4-benzoylamino-phenoxy)-2-(4-isopropoxy-benzoyl-amino)-phenyl]-acetic acid]",–,87%
"CCCCc1ccc(C(=O)Nc2ccc(Oc3ccc(NC(=O)c4ccc(C(F)(F)F)cc4F)cc3)cc2CC(=O)O)cc1 [17:4, {2-(4-butyl-benzoylamino)-5-[4-(2-fluoro-4-trifluoromethyl-benzoylamino)-phenoxy]-phenyl}-acetic acid]",–,79%
"CCCCc1ccc(C(=O)Nc2ccc(Oc3ccc(NC(=O)c4ccc(Cl)cc4Cl)c(CC(=O)O)c3)cc2)cc1 [17:5, [5-[4-(4-butyl-benzoylamino)-phenoxy]-2-(2,4-dichloro-benzoylamino)-phenyl]-acetic acid]",–,94%
"CCCCc1ccc(C(=O)Nc2ccc(Oc3ccc(NS(=O)(=O)c4ccc5c(c4)CNCC5)c(CC(=O)O)c3)cc2)cc1 [17:6, [5-[4-(4-butyl-benzoylamino)-phenoxy]-2-(1,2,3,4-tetrahydro-isoquinoline-7-sulfonylamino)-phenyl]-acetic acid]",–,23%
"CCCCOc1ccc(S(=O)(=O)Nc2ccc(Oc3ccc(NC(=O)c4ccccc4)cc3)cc2CC(=O)O)cc1 [17:7, [5-(4-benzoylamino-phenoxy)-2-(4-butoxy-benzenesulfonyl-amino)-phenyl]-acetic acid]",–,95%
"CN(c1cc(Oc2ccc(NS(=O)(=O)c3cccc(Cl)c3Cl)cc2)cc(C(=O)O)c1)c1ccc(F)c(F)c1 [18:1, 3-[4-(2,3-dichloro-benzenesulfonylamino)-phenoxy]-5-[(3,4-difluoro-phenyl)-methyl-amino]-benzoic acid]",–,97%
"O=C(O)c1cc(Nc2ccc(F)c(F)c2)cc(Oc2ccc(Nc3ccc(Cl)cc3)cc2)c1 [18:2, 3-[4-(4-Chloro-phenylamino)-phenoxy]-5-(3,4-difluoro-phenylamino)-benzoic acid]",–,97%
"CN(c1cc(Oc2ccc(Nc3ccc(C(=O)C4CC4)cc3)cc2)cc(C(=O)O)c1)c1ccc(F)c(F)c1 [18:3, 3-[4-(4-Cyclopropanecarbonyl-phenylamino)-phenoxy]-5-[(3,4-difluoro-phenyl)-methyl-amino]-benzoic acid]",–,95%
"Cc1c(Cl)cccc1S(=O)(=O)Nc1ccc(Oc2cc(Nc3ccc(F)c(F)c3)cc(C(=O)O)c2)cc1 [18:4, 3-[4-(3-Chloro-2-methyl-benzene-sulfonylamino)-phenoxy]-5-(3,4-difluoro-phenylamino)-benzoic acid]",–,98%
"O=C(O)c1cc(Nc2ccc(F)c(F)c2)cc(Oc2ccc(NC(=O)c3cccc(Cl)c3)cc2)c1 [18:5, 3-[4-(3-Chloro-benzoylamino)-phenoxy]-5-(3,4-difluoro-phenylamino)-benzoic acid]",–,100%
"CN(c1cc(Oc2ccc(NC(=O)c3cccc(Cl)c3)cc2)cc(C(=O)O)c1)c1ccc(F)c(F)c1 [18:6, 3-[4-(3-Chloro-benzoylamino)-phenoxy]-5-[(3,4-difluoro-phenyl)-methyl-amino]-benzoic acid]",–,96%

SMILES,% inh.,inhibition at 10 µM
"CCCCOc1ccc(S(=O)(=O)Nc2ccc(Oc3cccc(S(=O)(=O)Nc4ccc(F)c(F)c4)c3)cc2C(=O)O)cc1 [19:2, 2-(4-Butoxy-benzenesulfonylamino)-5-[3-(3,4-difluoro-phenylsufamoyl)-phenoxy]-benzoic acid]",100%,–
"O=C(Nc1ccc(Oc2cccc(S(=O)(=O)Nc3ccc(F)c(F)c3)c2)cc1C(=O)O)c1ccc(Cl)cc1Cl [19:3, 2-(2,4-Dichloro-benzoylamino)-5-[3-(3,4-difluoro-phenylsufamoyl)-phenoxy]-benzoic acid]",100%,–
"CCCCOc1ccc(S(=O)(=O)Nc2ccc(Oc3cccc(C(=O)NS(=O)(=O)c4cccc(Cl)c4F)c3)cc2C(=O)O)cc1 [20:1, 2-(4-Butoxy-benzenesulfonylamino)-5-[3-(3-chloro-2-fluoro-benzene-sulfonylaminocarbonyl)-phenoxy]-benzoic acid]",–,99%
"O=C(NS(=O)(=O)c1ccc(F)c(F)c1)c1cccc(Oc2ccc(Nc3ccc(Cl)cc3)c(C(=O)O)c2)c1 [20:2, 2-(4-Chloro-phenylamino)-5-[3-(3,4-difluoro-benzenesulfonylamino-carbonyl)-phenoxy]-benzoic acid]",–,96%
"O=C(NS(=O)(=O)c1cccc(Cl)c1F)c1cccc(Oc2ccc(Nc3ccc(Cl)cc3)c(C(=O)O)c2)c1 [20:3, 5-[3-(3-Chloro-2-fluoro-benzene-sulfonylaminocarbonyl)-phenoxy]-2-(4-chloro-phenylamino)-benzoic acid]",–,97%
"CCCCOc1ccc(S(=O)(=O)Nc2ccc(Oc3cccc(C(=O)NS(=O)(=O)c4ccc(F)cc4)c3)cc2C(=O)OC(C)(C)C)cc1 [20:4, 2-(4-Butoxy-benzenesulfonylamino)-5-[3-(4-fluoro-benzenesulfonylamino-carbonyl)-phenoxy]-benzoic acid t-butyl ester]",–,99%
"CCCCOc1ccc(S(=O)(=O)Nc2ccc(Oc3cccc(C(=O)NS(=O)(=O)c4ccc(F)c(F)c4)c3)cc2C(=O)O)cc1 [20:5, 2-(4-Butoxy-benzenesulfonylamino)-5-[3-(3,4-difluoro-benzenesulfonyl-aminocarbonyl)-phenoxy]-benzoic acid]",–,97%
"CC(C)(C)OC(=O)c1cc(Oc2cccc(C(=O)NS(=O)(=O)c3ccc(F)c(F)c3)c2)ccc1Nc1ccc(Cl)cc1 [20:6, 2-(4-Chloro-phenylamino)-5-[3-(3,4-difluoro-benzenesulfonylamino-carbonyl)-phenoxy]-benzoic acid t-butyl ester]",–,100%
"CCCCOc1ccc(S(=O)(=O)Nc2ccc(Oc3cccc(C(=O)NS(=O)(=O)c4ccc(F)cc4)c3)cc2C(=O)O)cc1 [20:7, 2-(4-Butoxy-benzenesulfonylamino)-5-[3-(4-fluoro-benzenesulfonylamino-carbonyl)-phenoxy]-benzoic acid]",–,94%
"O=C(NS(=O)(=O)c1ccc(F)cc1)c1cccc(Oc2ccc(Nc3ccc(Cl)cc3)c(C(=O)O)c2)c1 [20:8, 5-[3-(4-Fluorobenzenesulfonyl-aminocarbonyl)-phenoxy]-2-(4-chloro-phenylamino)-benzoic acid]",–,96%
"CCCCOc1ccc(S(=O)(=O)NC(=O)c2cccc(Oc3ccc(Nc4ccc(Cl)cc4)c(C(=O)O)c3)c2)cc1 [20:9, 5-[3-(4-Butoxy-benzenesulfonyl-aminocarbonyl)-phenoxy]-2-(4-chloro-phenylamino)-benzoic acid]",–,100%
"Cc1nc(C(F)(F)F)ccc1C(=O)Nc1ccc(Oc2ccc(NS(=O)(=O)c3ccc(F)c(Cl)c3)c(C(=O)O)c2)cc1 [21:1, 2-(3-Chloro-4-fluoro-benzenesulfonylamino)-5-{4-[(2-methyl-6-trifluoromethyl-pyridine-3-carbonyl)-amino]-phenoxy}-benzoic acid]",–,100%
"Cc1nc(C(F)(F)F)ccc1C(=O)Nc1ccc(Oc2ccc(NS(=O)(=O)c3cc(Cl)cc(Cl)c3O)c(C(=O)O)c2)cc1 [21:2, 2-(3,5-Dichloro-2-hydroxy-benzene-sulfonylamino)-5-{4-[(2-methyl-6-trifluoromethyl-pyridine-3-carbonyl)-amino]-phenoxy}-benzoic acid]",–,98%
"COc1ccc(S(=O)(=O)Nc2ccc(Oc3ccc(N(C)C(=O)c4ccc(C(C)(C)C)cc4)cc3)cc2C(=O)O)cc1 [21:3, 5-{4-[(4-t-Butyl-benzoyl)-methyl-amino]-phenoxy}-2-(4-methoxy-benzenesulfonylamino)-benzoic acid]",–,99%
"CCCCOc1ccc(S(=O)(=O)Nc2ccc(Oc3ccc(NC(=O)c4ccccc4)cc3)cc2C(=O)O)cc1 [21:4, 5-(4-benzoylamino-phenoxy)-2-(4-butoxy-benzenesulfonylamino)-benzoic acid]",–,100%
"CCCCOc1ccc(S(=O)(=O)Nc2ccc(Oc3cccc(NCc4cccc(F)c4F)c3)cc2C(=O)O)cc1 [23:1, 2-(4-Butoxybenzenesulfonylamino)-5-[3-(2,3-difluorobenzylamino)-phenoxy]benzoic acid]",–,100%
